In US20260070945A1, “MACROCYCLIC IMMUNOMODULATORS” (Bristol-Myers Squibb Company, priority 2022, published 2026):
*1 amine or outer side, *2 acyl side, *3 side chain or, on linkers, in order; H or OH if unused. Where a SMILES comes first, the peptide text is derived from it. Bridges are numbered along the chain shown (N, C = ends). [ ]: non-standard residue; d: D form. The star is where a group is joined. ξ: configuration not given here. Phe(4-COOH) = N[C@@H](Cc1ccc(C(=O)O)cc1)C(=O)O; Bip = N[C@@H](Cc1ccc(-c2ccccc2)cc1)C(=O)O; Phe(3-Me) = Cc1cccc(C[C@H](N)C(=O)O)c1; γGlu = O=C(O)[C@H](CCC(=O)[*:2])N[*:1]; NH(CH2)12COOH = O=C(O)CCCCCCCCCCCCN*; Val(3-OH) = CC(C)(O)[C@H](N)C(=O)O; aIle = CC[C@@H](C)[C@H](N)C(=O)O; 4Pal = N[C@@H](Cc1ccncc1)C(=O)O; Cha = N[C@@H](CC1CCCCC1)C(=O)O; Cit = NC(=O)NCCC[C@H](N)C(=O)O; Ile(3ξ) = CCC(C)[C@H](N)C(=O)O; Thr(3ξ) = CC(O)[C@H](N)C(=O)O; Chg = N[C@H](C(=O)O)C1CCCCC1; Carboxymethyl = O=C(O)C*; NMeA = CN[C@@H](C)C(=O)O; Orn = NCCC[C@H](N)C(=O)O; dDap = NC[C@@H](N)C(=O)O; Aun = NCCCCCCCCCCC(=O)O; Dab = NCC[C@H](N)C(=O)O; AEEA = NCCOCCOCC(=O)O; Sar = CNCC(=O)O

Each molecule was assayed against T1, PD-1/PD-L1 interaction (PE-labeled human PD-L1-Ig binding to Jurkat cell line over-expressing human PD-1) (Homo sapiens, UniProt Q15116) (assay: Jurkat-PD-1 Cell Binding High-Content Screening Assay (CBA)). Conditions: Jurkat-hPD-1 cells, PE-labeled PD-L1-Ig 20 nM final; read-out: Jurkat HPD1 PDL1 IC50.
T1 construct: expressed in transfected cells; host or cells: Jurkat
Procedure: Example 2: Jurkat-PD-1 Cell Binding High-Content Screening Assay (CBA)
Phycoerythrin (PE) was covalently linked to the Ig epitope tag of human PD-L1-Ig and fluorescently-labeled PD-L1-Ig was used for binding studies with a Jurkat cell line over-expressing human PD-1 (Jurkat-PD-1). Briefly, 8×10^3 Jurkat-hPD-1 cells were seeded into 384 well plates in 20 μl of DMEM supplemented with 10% fetal calf serum. 100 nl of compound was added to cells followed by incubation at 37° C. for 2 hours. Then, 5 μl of PE-labeled PD-L1-Ig (20 nM final), diluted in DMEM supplemented with 10% fetal calf serum. After 1 hour incubation, cells were fixed with […] in dPBS containing 10 μg/ml Hoechst 33342 and then washed 3× in 100 μl dPBS. Data was collected and processed using a Cell Insight NXT High Content Imager and associated software.

T1 sequence (Q15116 25-288): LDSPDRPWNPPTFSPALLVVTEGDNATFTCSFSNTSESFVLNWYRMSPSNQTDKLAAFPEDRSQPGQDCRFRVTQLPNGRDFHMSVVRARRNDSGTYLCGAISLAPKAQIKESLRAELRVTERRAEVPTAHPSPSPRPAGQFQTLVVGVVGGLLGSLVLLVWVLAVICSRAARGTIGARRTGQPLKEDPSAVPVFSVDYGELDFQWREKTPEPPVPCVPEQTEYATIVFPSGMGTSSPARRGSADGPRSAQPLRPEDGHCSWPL

Structure (SMILES)	IC50
CC(C)C[C@H]1NC(=O)[C@H](C)N(C)C(=O)[C@H](C(C)C)NC(=O)[C@H](Cc2ccc(-c3ccccc3)cc2)NC(=O)[C@H](C2CCCCC2)NC(=O)[C@H](Cc2c[nH]c3ccccc23)NC(=O)[C@H](CC(=O)O)NC(=O)[C@H](Cc2ccncc2)NC(=O)[C@H](Cc2ccc(OCC(=O)O)cc2)NC(=O)CSC[C@@H](C(=O)N[C@@H](CCCCN)C(=O)NCCOCCOCC(=O)NCCCCCCCCCCC(=O)O)NC(=O)[C@H](CO)NC(=O)[C@H](C(C)C)NC(=O)[C@H](CC2CCCCC2)NC(=O)[C@H](CC(=O)O)NC1=O [Example 2092] ({CH2CO}-Y(Carboxymethyl)[4Pal]DW[Chg][Bip]V[NMeA][dL]D[Cha]VSCK[AEEA][Aun]-OH; thioether N-14)	72.8 nM
CC(=O)NCCCC[C@@H]1NC(=O)[C@H](Cc2ccc(-c3ccccc3)cc2)NC(=O)[C@H](Cc2ccc(O)cc2)NC(=O)[C@H](Cc2cccc(C)c2)NC(=O)[C@H](CC(=O)O)NC(=O)[C@H](Cc2ccc(OCC(=O)O)cc2)NC(=O)[C@H](C(C)O)NC(=O)CSC[C@@H](C(=O)NCCOCCOCC(=O)NCCCCCCCCCCC(=O)O)NC(=O)[C@H](C(C)O)NC(=O)[C@H](C(C)C)NC(=O)[C@H](CC2CCCCC2)NC(=O)[C@H](CCN)NC(=O)[C@@H](CC(C)C)NC(=O)[C@H](C)N(C)C1=O (stereo partly drawn) [Example 2420] ({CH2CO}-[Thr(3ξ)]Y(Carboxymethyl)D[Phe(3-Me)]Y[Bip]K(Ac)[NMeA][dL][Dab][Cha]V[Thr(3ξ)]C[AEEA][Aun]-OH; thioether N-14)	35.4 nM
CCC(C)[C@@H]1NC(=O)[C@H](Cc2ccc(-c3ccccc3)cc2)NC(=O)[C@H](C(C)C)NC(=O)[C@H](Cc2c[nH]c3ccccc23)NC(=O)[C@H](CC(=O)O)NC(=O)[C@H](Cc2ccc(OCC(=O)O)cc2)NC(=O)[C@H](C(C)O)NC(=O)CSC[C@@H](C(=O)N[C@@H](C)C(=O)NCCOCCOCC(=O)N[C@@H](CCC(=O)NCCOCCOCC(=O)N[C@@H](CCC(=O)NCCOCCOCC(=O)N[C@@H](CCCCN)C(=O)NCCCCCCCCCCCCC(=O)O)C(=O)O)C(=O)O)NC(=O)[C@H](C(C)O)NC(=O)[C@H](C(C)C)NC(=O)[C@H](CC2CCCCC2)NC(=O)[C@H](CCN)NC(=O)[C@@H](CC(C)C)NC(=O)[C@H](C)N(C)C1=O (stereo partly drawn) [Example 2009] ({CH2CO}-[Thr(3ξ)]Y(Carboxymethyl)DWV[Bip][Ile(3ξ)][NMeA][dL][Dab][Cha]V[Thr(3ξ)]CA[AEEA][γGlu][AEEA][γGlu][AEEA]K-{NH(CH2)12COOH}; thioether N-14)	58.3 nM
CC[C@@H](C)[C@@H]1NC(=O)[C@H](Cc2ccc(-c3ccccc3)cc2)NC(=O)[C@H](C(C)C)NC(=O)[C@H](Cc2c[nH]c3ccccc23)NC(=O)[C@H](CC(=O)O)NC(=O)[C@H](Cc2ccc(O)cc2)NC(=O)[C@H](Cc2ccncc2)NC(=O)CSC[C@@H](C(=O)N[C@H](CCCCN)C(=O)NCCOCCOCC(=O)NCCCCCCCCCCC(=O)O)NC(=O)[C@H](CO)NC(=O)[C@H](C(C)C)NC(=O)[C@H](CC2CCCCC2)NC(=O)[C@H](CCN)NC(=O)[C@@H](CC(C)C)NC(=O)[C@H](C)N(C)C1=O [Example 2023] ({CH2CO}-[4Pal]YDWV[Bip][aIle][NMeA][dL][Dab][Cha]VSC[dK][AEEA][Aun]-OH; thioether N-14)	47.4 nM
Cc1cccc(C[C@@H]2NC(=O)[C@H](CC(=O)O)NC(=O)[C@H](Cc3ccc(OCC(=O)O)cc3)NC(=O)[C@H](CC(N)=O)NC(=O)CSC[C@@H](C(=O)N(C)CC(=O)NCCCCCCCCCCC(=O)O)NC(=O)[C@H](CCCNC(N)=O)NC(=O)[C@H](C(C)C)NC(=O)[C@H](CC3CCCCC3)NC(=O)[C@H](CCN)NC(=O)[C@@H](CC(C)C)NC(=O)[C@H](C)N(C)C(=O)[C@H](C(C)C)NC(=O)[C@H](Cc3ccc(-c4ccccc4)cc3)NC(=O)[C@H](C(C)C)NC2=O)c1 [Example 2261] ({CH2CO}-NY(Carboxymethyl)D[Phe(3-Me)]V[Bip]V[NMeA][dL][Dab][Cha]V[Cit]C[Sar][Aun]-OH; thioether N-14)	25.8 nM
CC[C@@H](C)[C@@H]1NC(=O)[C@H](Cc2ccc(-c3ccccc3)cc2)NC(=O)[C@H](C(C)C)NC(=O)[C@H](Cc2c[nH]c3ccccc23)NC(=O)[C@H](CC(=O)O)NC(=O)[C@H](Cc2ccc(C(=O)O)cc2)NC(=O)[C@H](Cc2ccc(OCC(=O)O)cc2)NC(=O)CSC[C@@H](C(=O)N[C@H](CN)C(=O)NCCOCCOCC(=O)N[C@@H](CCC(=O)NCCOCCOCC(=O)N[C@@H](CCC(=O)NCCOCCOCC(=O)N[C@@H](CCCN)C(=O)NCCCCCCCCCCC(=O)O)C(=O)O)C(=O)O)NC(=O)[C@H](CO)NC(=O)[C@H](C(C)C)NC(=O)[C@H](CC2CCCCC2)NC(=O)[C@H](CC(N)=O)NC(=O)[C@@H](CC(C)C)NC(=O)[C@H](C)N(C)C1=O [Example 2018] ({CH2CO}-Y(Carboxymethyl)[Phe(4-COOH)]DWV[Bip][aIle][NMeA][dL]N[Cha]VSC[dDap][AEEA][γGlu][AEEA][γGlu][AEEA][Orn][Aun]-OH; thioether N-14)	73.7 nM

Further lines, results first:

IC50	Structure (SMILES)
12.8 nM	Cc1cccc(C[C@@H]2NC(=O)[C@H](CC(=O)O)NC(=O)[C@H](Cc3ccc(C(=O)O)cc3)NC(=O)[C@H](Cc3ccc(OCC(=O)O)cc3)NC(=O)CSC[C@@H](C(=O)N[C@@H](CCN)C(=O)NCCCCCCCCCCC(=O)O)NC(=O)[C@H](C(C)O)NC(=O)[C@H](C(C)C)NC(=O)[C@H](CC3CCCCC3)NC(=O)[C@H](CCN)NC(=O)[C@@H](CC(C)C)NC(=O)[C@H](C)N(C)C(=O)[C@H](CCCNC(N)=O)NC(=O)[C@H](Cc3ccc(-c4ccccc4)cc3)NC(=O)[C@H](CC(C)C)NC2=O)c1 (stereo partly drawn) [Example 2324] ({CH2CO}-Y(Carboxymethyl)[Phe(4-COOH)]D[Phe(3-Me)]L[Bip][Cit][NMeA][dL][Dab][Cha]V[Thr(3ξ)]C[Dab][Aun]-OH; thioether N-14)
198 nM	CC(C)C[C@@H]1NC(=O)[C@H](Cc2c[nH]c3ccccc23)NC(=O)[C@H](CC(=O)O)NC(=O)[C@H](Cc2ccc(OCC(=O)O)cc2)NC(=O)[C@H](Cc2ccccc2)NC(=O)CSC[C@@H](C(=O)N[C@@H](CCCN)C(=O)NCCCCCCCCCCC(=O)O)NC(=O)[C@H](CCC(=O)O)NC(=O)[C@H](C(C)C)NC(=O)[C@H](CC(C)C)NC(=O)[C@H](CC(N)=O)NC(=O)[C@@H](CC(C)C)NC(=O)[C@H](C)N(C)C(=O)[C@H](C(C)C)NC(=O)[C@H](Cc2ccc(-c3ccccc3)cc2)NC1=O [Example 1336] ({CH2CO}-FY(Carboxymethyl)DWL[Bip]V[NMeA][dL]NLVEC[Orn][Aun]-OH; thioether N-14)
12.1 nM	CC(C)C[C@@H]1NC(=O)[C@H](Cc2c[nH]c3ccccc23)NC(=O)[C@H](CC(=O)O)NC(=O)[C@H](Cc2ccc(C(=O)O)cc2)NC(=O)[C@H](Cc2ccc(OCC(=O)O)cc2)NC(=O)CSC[C@@H](C(=O)N[C@@H](CCN)C(=O)NCCCCCCCCCCC(=O)O)NC(=O)[C@H](CCCNC(N)=O)NC(=O)[C@H](C(C)C)NC(=O)[C@H](CC2CCCCC2)NC(=O)[C@H](CCN)NC(=O)[C@@H](CC(C)C)NC(=O)[C@H](C)N(C)C(=O)[C@H](C(C)C)NC(=O)[C@H](Cc2ccc(-c3ccccc3)cc2)NC1=O [Example 2188] ({CH2CO}-Y(Carboxymethyl)[Phe(4-COOH)]DWL[Bip]V[NMeA][dL][Dab][Cha]V[Cit]C[Dab][Aun]-OH; thioether N-14)
10.8 nM	CC(C)C[C@H]1NC(=O)[C@H](C)N(C)C(=O)[C@H](C(C)C)NC(=O)[C@H](Cc2ccc(-c3ccccc3)cc2)NC(=O)[C@H](C(C)C)NC(=O)[C@H](Cc2c[nH]c3ccccc23)NC(=O)[C@H](CC(=O)O)NC(=O)[C@H](Cc2ccc(C(=O)O)cc2)NC(=O)[C@H](Cc2ccc(OCC(=O)O)cc2)NC(=O)CSC[C@@H](C(=O)N[C@@H](CCCCN)C(=O)NCCOCCOCC(=O)NCCCCCCCCCCC(=O)O)NC(=O)[C@H](C(C)O)NC(=O)[C@H](C(C)C)NC(=O)[C@H](CC2CCCCC2)NC(=O)[C@H](CCN)NC1=O (stereo partly drawn) [Example 2109] ({CH2CO}-Y(Carboxymethyl)[Phe(4-COOH)]DWV[Bip]V[NMeA][dL][Dab][Cha]V[Thr(3ξ)]CK[AEEA][Aun]-OH; thioether N-14)
38.2 nM	CC(=O)NCC[C@@H]1NC(=O)[C@H](C(C)(C)O)NC(=O)[C@H](CC2CCCCC2)NC(=O)[C@H](CCN)NC(=O)[C@@H](CC(C)C)NC(=O)[C@H](C)N(C)C(=O)[C@H](C(C)C)NC(=O)[C@H](Cc2ccc(-c3ccccc3)cc2)NC(=O)[C@H](CC(C)C)NC(=O)[C@H](Cc2c[nH]c3ccccc23)NC(=O)[C@H](CC(=O)O)NC(=O)[C@H](Cc2ccc(OCC(=O)O)cc2)NC(=O)[C@H](Cc2ccc(OCC(=O)O)cc2)NC(=O)CSC[C@@H](C(=O)NCCOCCOCC(=O)NCCCCCCCCCCC(=O)O)NC1=O [Example 2447] ({CH2CO}-Y(Carboxymethyl)Y(Carboxymethyl)DWL[Bip]V[NMeA][dL][Dab][Cha][Val(3-OH)][Dab](Ac)C[AEEA][Aun]-OH; thioether N-14)

Same assay, conditions: PE-labeled PD-L1-Ig 20 nM final, Jurkat-hPD-1 cells; read-out: Jurkat HPD1 PDL1 IC50

IC50	Structure (SMILES)
85.6 nM	Cc1cccc(C[C@@H]2NC(=O)[C@H](CC(=O)O)NC(=O)[C@H](Cc3ccc(OCC(=O)O)cc3)NC(=O)[C@H](C(C)O)NC(=O)CSC[C@@H](C(=O)N[C@@H](CCN)C(=O)NCCOCCOCC(=O)N[C@@H](CCC(=O)NCCOCCOCC(=O)NCCCCCCCCCCCCC(=O)O)C(=O)O)NC(=O)[C@H](CCC(=O)O)NC(=O)[C@H](C(C)C)NC(=O)[C@H](CC3CCCCC3)NC(=O)[C@H](CCN)NC(=O)[C@@H](CC(C)C)NC(=O)[C@H](C)N(C)C(=O)[C@H](Cc3ccc(OCC(=O)O)cc3)NC(=O)[C@H](Cc3ccc(-c4ccccc4)cc3)NC(=O)[C@H](Cc3ccc(OCC(=O)O)cc3)NC2=O)c1 (stereo partly drawn) [Example 2656] ({CH2CO}-[Thr(3ξ)]Y(Carboxymethyl)D[Phe(3-Me)]Y(Carboxymethyl)[Bip]Y(Carboxymethyl)[NMeA][dL][Dab][Cha]VEC[Dab][AEEA][γGlu][AEEA]-{NH(CH2)12COOH}; thioether N-14)
